Here are results for eleven compounds from EP4538258A1, “IMIDAZOLIDINYL VANILLIC ACID ETHER DERIVATIVE AND USE THEREOF” (Hefei Institute of Pharmaceutical Industry Co., Ltd., priority 2022, dated 2023).

In data set [1] the test system is arteriovenous bypass thrombi. Put plainly: Antithrombotic activity in vivo: arteriovenous bypass thrombosis in rats. Also noted: species or system SD rats. The conditions noted are these: single gavage 15 mg/kg; for inhibition at 15 mg/kg: Rattus norvegicus, po, vs blank control; for Thrombus wet weight: 1 h after administration, blood flow 15 min; for Thrombus wet weight / Thrombus dry weight: x±s, n=8; for Thrombus dry weight: thread dried at 70°C. Here is the method: 104 SD rats (purchased from Weitong Lihua Experimental Animal Technology Co., Ltd., certificate number: 20211103Aazz0619000910), male, weighing 180-220 g, were randomly divided into 13 groups according to body weight after 7 days of adaptive feeding, with 8 rats in each group, namely, normal control group, compound A group, compound A methyl ester group, and Example 1-10 compound groups respectively. Each group was given corresponding drugs by gavage (dosage was 15 mg/kg), and the normal control group was given an equal volume of solvent, all of which were given by single gavage. One hour after the last administration, the rats were anesthetized with 3% chloral hydrate intraperitoneally, and the right common carotid artery and left external jugular vein were isolated in a supine position. A polyethylene tube was taken with an inner diameter of 1.5 mm and a length of 10 cm, a 6 cm long silk thread (preweighed) was inserted into it, and the polyethylene tube was filled with normal saline solution of heparin (50 U/ml). One end of the polyethylene tube was inserted into the left external jugular vein, heparin (50 U/kg) was injected, and the other end was inserted into the right common carotid artery. After blood flow was opened for 15 minutes, the blood flow was interrupted and the silk thread was quickly taken out and weighed. The total weight minus the original silk thread weight was the wet weight of the thrombus. The silk thread was placed in an oven for drying at 70°C. The dry weight of the thrombus was obtained by weighing the silk thread minus the original silk thread weight, and the inhibition rate was calculated. [formula] [formula]

Data set [2] is described as follows: Pharmacokinetics in vivo in rats after gavage. Also noted: species or system SD male rats. The settings on record: rat, p.o. 15 mg/kg (calculated as Compound A), mean value. Here is the method:
Eighteen SD male rats (purchased from Weitong Lihua Experimental Animal Technology Co., Ltd., certificate number: 20211103Aazz0619000910), weighing 240-280 g, were randomly divided into 6 groups, with 3 rats in each group. The animals were fasted overnight before administration. On the day of administration, the compounds of Examples 3, 4, 5, 6, Compound A, and Compound A methyl ester were gavaged to the animals in each groups respectively, and the dosage was 15 mg/kg (calculated as Compound A). Before administration and 0.25, 0.5, 1, 2, 4, 6, 8, and 24 h after administration, 0.15 mL of blood was collected from the animals through the jugular sinus and placed in an EDTA-K2 anticoagulant tube containing 3 µL of dichlorvos aqueous solution (10 mg/mL). After centrifugation, plasma was collected, and was placed in the sample, and then 10 µL of plasma sample was taken, 500 µL of acetonitrile containing IS (verapamil 5 ng·mL^-1, glibenclamide 50 ng·mL^-1, tolbutamide 200 ng·mL^-1, and diclofenac 200 ng·mL^-1) was added, vortexed for 10 min, and then centrifuged at 3700 rpm for 10 min, and then 70 µL of supernatant and 70 µL of water were added, and vortexed for 10 min. An aliquot of 2 µL of the mixture was injected into the LC-MS/MS system (Triple Quad 5500+: LC-MS-MS-022) to measure blood concentration of the compounds. […]

Where [3] appears, read: read-out: Inhibition rate (thrombus dry weight).
The mark [4] stands for this setting: read-out: Inhibition rate (thrombus wet weight).

Counter-ions that a name gives are not always drawn. Like-named read-outs stand apart in the source and are kept apart here.

The term inhibition denotes the percentage by which the read-out fell short of the control. On to `COc1cc(C(=O)Oc2ccc(C[C@@H](N)C(=O)O)cc2)ccc1OCCn1ccnc1.Cl` [Example 10, (R)-4-(4-(2-(1H-imidazol-1-yl)ethoxy)-3-methoxybenzoyloxy)phenylalanine hydrochloride], for which the inhibition at 15 mg/kg in data set [1] (setting [3]) turned out to be 55.1%. For the same compound, the inhibition at 15 mg/kg in data set [1] (setting [4]) came to 47.5%. In data set [1], the Thrombus wet weight is recorded as 53.1±11.8^★★**## mg and the Thrombus dry weight is 15.3±2.8^★★*## mg.

Take `COc1cc(C(=O)O)ccc1OCCn1ccnc1` [Compound A]: in data set [2], the MRTo-t is 5.4 h.

For the compound `COc1cc(C(=O)OCCCCCC(=O)O)ccc1OCCn1ccnc1` [Example 3, 6-(4-(2-(1H -imidazol-1-yl)ethoxy)-3-methoxybenzoyloxy)hexanoic acid], the inhibition at 15 mg/kg in data set [1] (setting [3]) came out at 64%. The inhibition at 15 mg/kg in data set [1] (setting [4]) was determined as 53.3%. In data set [1], the Thrombus wet weight is 47.3±6.3^★★**## mg and the Thrombus dry weight is recorded as 12.3±5.7^★★**## mg.

For the compound `COc1cc(C(=O)OC(C)C)ccc1OCCn1ccnc1.Cl` [Example 2, isopropyl 4-(2-(1H-imidazol-1-yl)ethoxy)-3-methoxybenzoate hydrochloride], in data set [1] (setting [3]), the inhibition at 15 mg/kg was determined as 54.8%. The inhibition at 15 mg/kg in data set [1] (setting [4]) is 48.3%. For the same compound, in data set [1], the Thrombus wet weight is given as 52.3±10.5^★★**## mg and the Thrombus dry weight is listed as 15.4±5.0^★★*## mg.

As to `COc1cc(C(=O)Oc2ccc(C[C@H](N)C(=O)O)cc2)ccc1OCCn1ccnc1.Cl` [Example 9, (S)-4-(4-(2-(1H-imidazol-1-yl)ethoxy)-3-methoxybenzoyloxy)phenylalanine hydrochloride], in data set [1] (setting [3]), the inhibition at 15 mg/kg turned out to be 57.4%. Also, the inhibition at 15 mg/kg in data set [1] (setting [4]) was determined as 49.4%. For the same compound, in data set [1], the Thrombus wet weight is 51.1±12.7^★★**## mg and the Thrombus dry weight is 14.5±6.2^★★**## mg.

In the case of `CCCOC(=O)c1ccc(OCCn2ccnc2)c(OC)c1` [Example 1, propyl 4-(2-(1H-imidazol-1-yl)ethoxy)-3-methoxybenzoate], the values for the inhibition at 15 mg/kg in data set [1] (setting [3]) and in data set [1] (setting [4]) were 52.9% and 45.9%, respectively. The Thrombus wet weight in data set [1] is given as 54.8±12.7^★★*## mg. For the same compound, in data set [1], the Thrombus dry weight is listed as 16.0±3.4^★★*## mg.

Turning to `COc1cc(C(=O)Nc2ccc(C[C@H](N)C(=O)O)cc2)ccc1OCCn1ccnc1.Cl` [Example 7, (S)-4-(4-(2-(1H-imidazol-1-yl)ethoxy)-3-methoxybenzamido)phenylalanine hydrochloride], the inhibition at 15 mg/kg in data set [1] (setting [3]) is 52.6%. Moreover, the inhibition at 15 mg/kg in data set [1] (setting [4]) came out at 46.2%. Further, in data set [1], the Thrombus wet weight is listed as 54.4±9.8^★★*## mg and the Thrombus dry weight is recorded as 16.1±3.3^★★*## mg.

For the compound `COc1cc(C(=O)OC(C)OC(C)=O)ccc1OCCn1ccnc1` (stereo not drawn) [Example 6, 1-acetoxyethyl-4-(2-(1H-imidazol-1-yl)ethoxy)-3-methoxybenzoate], the inhibition at 15 mg/kg in data set [1] (setting [3]) is 58.1%. Further, the inhibition at 15 mg/kg in data set [1] (setting [4]) is 55.4%. Besides, in data set [1], the Thrombus wet weight is 45.1±8.6^★★**## mg and the Thrombus dry weight is listed as 14.3±5.0^★★**## mg.

`COc1cc(C(=O)Nc2ccc(C[C@@H](N)C(=O)O)cc2)ccc1OCCn1ccnc1` [Example 8, (R)-3-(4-(4-(2-(1H-imidazol-1-yl)ethoxy)-3-methoxybenzamido)phenyl)-2-propionic acid hydrochloride]: the inhibition at 15 mg/kg is 57% in data set [1] (setting [3]) and 48.6% in data set [1] (setting [4]). Further, the Thrombus wet weight in data set [1] was 52.0±13.5^★★**## mg. Also, the Thrombus dry weight in data set [1] is 14.6±3.8^★★**## mg.

As for `COC(=O)c1ccc(OCCn2ccnc2)c(OC)c1` [Compound A methyl ester, reference compound], the inhibition at 15 mg/kg in data set [1] (setting [3]) was found to be 32.4%. The inhibition at 15 mg/kg in data set [1] (setting [4]) is 29.4%. For the same compound, in data set [1], the Thrombus wet weight was 71.3±8.7^★★ mg and the Thrombus dry weight is 23.0±8.2^★★ mg. Further, the MRTo-t in data set [2] is on record as 6.5 h.

Take `COc1cc(C(=O)OCOC(=O)OC(C)C)ccc1OCCn1ccnc1` [Example 5, ((isopropoxycarbonyl)oxy)methyl-4-(2-(1H -imidazol-1-yl)ethoxy)-3-methoxybenzoate]: the inhibition at 15 mg/kg is 55.9% in data set [1] (setting [3]) and 53.5% in data set [1] (setting [4]). The Thrombus wet weight in data set [1] is listed as 47.0±8.7^★★**## mg. Moreover, the Thrombus dry weight in data set [1] is reported as 15.0±4.5^★★*## mg.
